In one experiment the target is T1, receptors D4.4 (Homo sapiens, UniProt P21917).
T1 sequence (P21917 1-419): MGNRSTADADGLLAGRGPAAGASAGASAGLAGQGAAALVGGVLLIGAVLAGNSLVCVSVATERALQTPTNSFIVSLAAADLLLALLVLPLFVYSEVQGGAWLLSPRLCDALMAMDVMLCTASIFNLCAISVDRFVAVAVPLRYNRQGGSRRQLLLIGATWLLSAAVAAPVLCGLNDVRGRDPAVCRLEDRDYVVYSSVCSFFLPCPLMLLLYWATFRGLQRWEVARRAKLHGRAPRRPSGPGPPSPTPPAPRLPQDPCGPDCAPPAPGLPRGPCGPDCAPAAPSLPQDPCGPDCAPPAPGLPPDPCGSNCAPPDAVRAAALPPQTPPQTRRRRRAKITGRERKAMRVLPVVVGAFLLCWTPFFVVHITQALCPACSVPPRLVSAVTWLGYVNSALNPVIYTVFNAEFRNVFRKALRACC
In words: Radioligand binding assay, dopaminergic D4 (D4.4) receptors. Conditions: test compound 1×10^−6 M. An excerpt: (§1) The specific ligand binding to the receptors is defined as the difference between the total binding and the non-specific binding determined in the presence of the excess of unlabelled ligand.
(§2) The results are expressed as a percent of control specific binding ((measured specific binding/control specific binding)×100) and as a percent inhibition of control specific binding (100−((measured specific binding/control specific binding)×100)) obtained in the presence of the test compounds. The specific ligand binding to the receptors is defined as the difference between the total binding and the nonspecific binding determined in the presence of an excess of unlabelled ligand. Scintillation counting was the method of detection of ligand binding. The IC50 values (concentration causing a half-maximal inhibition of control specific binding) were determined by non-linear regression analysis of the competition curves generated with mean replicate values using Hill equation curve fitting (Y=D+[(A−D)/(1+(C/C50)nH)], where Y=specific binding, D=minimum specific binding, A=maximum specific binding, C=compound concentration, C50=IC50, and nH=slope factor). This analysis was performed using a software developed at Cerep (Hill software) and validated by comparison with data generated by the commercial software SigmaPlot® 4.0 for Windows® (© 1997 by SPSS Inc.). The inhibition constants (Ki) were calculated using the Cheng Prusoff equation (Ki=IC50/(1+(L/KD)), where L=concentration of radioligand in the assay, and KD=affinity of the radioligand for the receptor). A scatchard plot was used to determine the Kd.
Experimental conditions for tests are given in Table 1, the results of tests for representative compounds are given in Tables 2a and 2b (receptors D2 and D3) and in Table 3 (receptors D4).

Another experiment addresses T2, 5-HT2A receptor (Homo sapiens, UniProt P28223).
T2 construct: purchased PerkinElmer
In words: Radioligand binding assay, serotoninergic 5-HT2A receptors. The conditions noted are these: binding assay result in %, Table 5a. The method, boiled down:
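Radioligand competition binding with scintillation counting; nonspecific binding defined by excess unlabelled ligand. Data as percent inhibition of control specific binding. IC50 by Hill-equation fit of competition curves; Ki by Cheng-Prusoff, with radioligand Kd from Scatchard plot.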

The next experiment deals with T3, 5-HT6 receptor (Homo sapiens, UniProt P50406).
T3 construct: purchased PerkinElmer
Description: Radioligand binding assay, serotoninergic 5-HT6 receptors. Conditions: for inhibition at 1 µM: binding assay result in %, Table 5a; for Ki: read-out: Inhibition constants Ki, 5-HT6. The gist of the method:
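Values are Ki from Cheng–Prusoff, taking IC50 from Hill nonlinear regression of competition curves and KD from a Scatchard plot. Specific binding was total minus binding with excess unlabelled ligand. Radioligand displacement was detected by scintillation counting, and data were also reported as percent of control specific binding.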

In experiment [1] the test system is α1 adrenergic receptors (rat cerebral cortex). In words: Radioligand binding assay, adrenergic α1 receptors. Conditions: test compound 1×10^−6 M. The gist of the method:
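Values derive from radioligand displacement, with non-specific binding defined by excess cold ligand and detection by scintillation. Hill-fit IC50s were converted to Ki via Cheng-Prusoff using Scatchard-derived Kd; percent inhibition of control specific binding also reported.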

In a further experiment the target is T4, M3 muscarinic receptors (Homo sapiens, UniProt P20309).
T4 construct: expressed in transfected cells; host or cells: CHO cells
Description: Radioligand binding assay, muscarinic M3 receptors. Conditions: test compound 1×10^−6 M.
From the text: as §1, §2
Experimental conditions for tests are given in Table 10, and results of tests for representative compounds are given in Table 11.

The target in experiment [2] is dopaminergic receptors D3 (Homo sapiens, UniProt P35462). Description: Radioligand binding assay, dopaminergic D3 receptors. Conditions: test compound 1×10^−6 M. The method, boiled down: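 Competition radioligand binding at human D2, D3 and D4.4 receptors, detected by scintillation counting; nonspecific binding defined with excess unlabelled ligand. Results as percent inhibition of control specific binding; IC50 by Hill-equation nonlinear regression; Ki via Cheng-Prusoff, with radioligand KD from Scatchard plot.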

In the next experiment the test system is σ receptors. Description: Radioligand binding assay, σ receptors. Conditions: rat cerebral cortex, [3H]DTG 8 nM.
From the text: as §1
as §2, with “This analysis was performed using a software developed at Cerep (Hill software) and validated by comparison with data generated by the commercial software SigmaPlot® 4.0 for Windows® (© 1997 by SPSS Inc.).” left out

This note sets out measurements from patent US20140135310A1, “SULPHONAMIDE DERIVATIVES OF ALICYCLIC AMINES FOR THE TREATMENT OF CENTRAL NERVOUS SYSTEM DISEASES” (Adamed Sp. z o.o., priority 2011, published 2014).

T3 sequence (P50406 whole entry): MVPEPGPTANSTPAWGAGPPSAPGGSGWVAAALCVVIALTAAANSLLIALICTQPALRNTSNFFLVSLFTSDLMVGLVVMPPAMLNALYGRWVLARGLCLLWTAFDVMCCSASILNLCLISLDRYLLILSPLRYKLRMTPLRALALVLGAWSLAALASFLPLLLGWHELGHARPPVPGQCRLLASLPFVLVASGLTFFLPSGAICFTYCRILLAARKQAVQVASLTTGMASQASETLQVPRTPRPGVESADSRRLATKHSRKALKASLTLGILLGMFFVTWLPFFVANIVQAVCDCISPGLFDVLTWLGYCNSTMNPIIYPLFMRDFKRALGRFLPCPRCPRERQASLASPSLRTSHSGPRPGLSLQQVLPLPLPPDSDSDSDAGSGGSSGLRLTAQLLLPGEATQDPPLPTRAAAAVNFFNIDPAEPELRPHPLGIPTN
Sequence of dopaminergic receptors D3 (P35462 whole entry): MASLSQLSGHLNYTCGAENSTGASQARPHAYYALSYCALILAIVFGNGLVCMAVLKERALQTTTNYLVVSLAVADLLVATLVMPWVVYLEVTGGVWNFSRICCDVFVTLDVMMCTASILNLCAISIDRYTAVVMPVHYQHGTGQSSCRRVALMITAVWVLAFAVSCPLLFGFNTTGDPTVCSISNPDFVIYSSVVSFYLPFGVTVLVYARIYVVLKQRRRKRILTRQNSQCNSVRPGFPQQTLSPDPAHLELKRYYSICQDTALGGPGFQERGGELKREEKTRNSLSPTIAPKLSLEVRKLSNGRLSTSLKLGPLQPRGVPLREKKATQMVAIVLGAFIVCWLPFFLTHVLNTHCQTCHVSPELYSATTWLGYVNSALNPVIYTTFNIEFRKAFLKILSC
T4 sequence (P20309 whole entry): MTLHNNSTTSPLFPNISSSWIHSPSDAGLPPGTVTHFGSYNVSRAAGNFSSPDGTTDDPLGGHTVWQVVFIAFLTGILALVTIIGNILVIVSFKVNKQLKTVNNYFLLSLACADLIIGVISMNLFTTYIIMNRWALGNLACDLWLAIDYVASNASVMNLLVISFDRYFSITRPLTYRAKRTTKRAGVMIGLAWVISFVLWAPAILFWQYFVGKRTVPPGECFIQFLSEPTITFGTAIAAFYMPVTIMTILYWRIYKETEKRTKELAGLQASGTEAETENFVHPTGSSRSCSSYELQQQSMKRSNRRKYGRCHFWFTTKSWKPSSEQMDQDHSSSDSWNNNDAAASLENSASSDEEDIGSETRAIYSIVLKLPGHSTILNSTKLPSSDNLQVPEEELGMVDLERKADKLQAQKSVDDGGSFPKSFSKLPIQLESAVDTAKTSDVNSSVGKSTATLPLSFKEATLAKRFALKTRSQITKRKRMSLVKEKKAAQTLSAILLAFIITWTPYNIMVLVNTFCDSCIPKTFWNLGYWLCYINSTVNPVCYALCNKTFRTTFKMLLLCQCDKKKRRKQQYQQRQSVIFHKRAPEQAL
T2 sequence (P28223 whole entry): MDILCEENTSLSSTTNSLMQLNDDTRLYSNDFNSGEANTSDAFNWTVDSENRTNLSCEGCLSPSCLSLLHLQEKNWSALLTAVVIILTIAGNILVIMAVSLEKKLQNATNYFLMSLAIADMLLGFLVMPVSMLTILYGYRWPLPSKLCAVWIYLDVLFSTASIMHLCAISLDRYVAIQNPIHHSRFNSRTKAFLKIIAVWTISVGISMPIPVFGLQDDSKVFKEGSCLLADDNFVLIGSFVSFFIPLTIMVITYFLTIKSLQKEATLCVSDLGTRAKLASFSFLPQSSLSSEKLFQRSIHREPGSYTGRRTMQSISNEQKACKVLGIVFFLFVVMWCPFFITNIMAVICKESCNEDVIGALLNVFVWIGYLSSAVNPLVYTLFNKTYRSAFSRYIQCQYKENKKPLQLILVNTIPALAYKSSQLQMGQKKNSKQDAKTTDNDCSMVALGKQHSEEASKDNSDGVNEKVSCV

For orientation: inhibition means the drop in the measured response relative to a control, in per cent. On to `O=S(=O)(NC1CCN(CCCc2noc3cc(F)ccc23)C1)c1ccc(Cl)c(F)c1` (centres unmarked) [Compound 11, 4-Chloro-3-fluoro-N-[1-[3-(6-fluoro-1,2-benzoxazol-3-yl)propyl]-pyrrolidin-3-yl]benzene-sulphonamide], for which the inhibition at 1 µM at receptors D4.4 amounted to 92%; on 5-HT2A receptor, 100%; at 5-HT6 receptor it was 94%; at M3 muscarinic receptors it was 3%; in experiment [2], 49%. In addition, the “α1 [%]” value in experiment [1] is given as 70%. The “σ [%]” value with σ receptors was determined as 74%.
On to `Cc1c(S(=O)(=O)NC2CCN(CCCc3noc4cc(F)ccc34)C2)sc2ccc(Cl)cc12` (centres unmarked) [Compound 29, 5-Chloro-N-[1-[3-(6-fluoro-1,2-benzoxazol-3-yl)propyl]pyrrolidin-3-yl]-3-methyl-benzothiophene-2-sulphonamide], for which the inhibition at 1 µM on receptors D4.4 was found to be 16%; at 5-HT6 receptor it was 92%; at M3 muscarinic receptors, 30%; in experiment [2], 85%. For the same compound, the “α1 [%]” value in experiment [1] is on record as 18%. Besides, in the experiment with σ receptors, the “σ [%]” value is on record as 60%.
For `O=S(=O)(NC1CN(CCOc2cccc3[nH]ccc23)C1)c1ccc(F)cc1` [Compound 46, 4-Fluoro-N-[1-[2-(1H-indol-4-yloxy)ethyl]azetidin-3-yl]benzene-sulphonamide], the inhibition at 1 µM on receptors D4.4 is 72%; at 5-HT2A receptor, 34%; at 5-HT6 receptor, 9%; at M3 muscarinic receptors, -13%; in experiment [2], 104%. The “α1 [%]” value in experiment [1] came to 85%. Moreover, the “σ [%]” value in the experiment with σ receptors is 15%.
Regarding `O=S(=O)(NC1CN(CCOc2cccc3[nH]ccc23)C1)c1cccc(Cl)c1` [Compound 47, 3-Chloro-N-[1-[2-(1H-indol-4-yloxy)ethyl]azetidin-3-yl]benzene-sulphonamide], the inhibition at 1 µM was 80% on receptors D4.4; 80% at 5-HT2A receptor; 45% on 5-HT6 receptor; -8% at M3 muscarinic receptors; 97% in experiment [2]. The “α1 [%]” value in experiment [1] worked out at 71%. For the same compound, the “σ [%]” value with σ receptors is 44%.
As for `Cc1cccc(S(=O)(=O)NC2CN(CCOc3cccc4[nH]ccc34)C2)c1` [Compound 48, N-[1-[2-(1H-Indol-4-yloxy)ethyl]azetidin-3-yl]-3-methyl-benzenesulphonamide], the inhibition at 1 µM stood at 80% on receptors D4.4; 88% on 5-HT2A receptor; 17% on 5-HT6 receptor; 1% at M3 muscarinic receptors; 104% in experiment [2]. Moreover, in experiment [1], the “α1 [%]” value is given as 87%. The “σ [%]” value in the experiment with σ receptors was 18%.
In general, Ki refers to a dissociation constant, usually derived from enzyme kinetics or from competition with a known ligand. As to `O=S(=O)(NC1CCN(CCCc2c[nH]c3ccc(F)cc23)C1)c1ccc(F)cc1` (centres unmarked) [Compound 75, 4-Fluoro-N-[1-[3-(5-fluoro-1H-indol-3-yl)propyl]pyrrolidin-3-yl]benzene-sulphonamide], the inhibition at 1 µM worked out at 76% at receptors D4.4; 90% at 5-HT2A receptor; 94% on 5-HT6 receptor; 17% at M3 muscarinic receptors; 86% in experiment [2]. Also, the Ki on 5-HT6 receptor is 34 nM. Also, the “α1 [%]” value in experiment [1] is on record as 45%. For the same compound, the “σ [%]” value with σ receptors was 75%.
As to `O=S(=O)(NC1CCN(CCCc2c[nH]c3ccc(F)cc23)C1)c1ccc(Cl)cc1` (centres unmarked) [Compound 77, 4-Chloro-N-[1-[3-(5-fluoro-1H-indol-3-yl)propyl]pyrrolidin-3-yl]-benzenesulphonamide], the inhibition at 1 µM on receptors D4.4 is 78%; at 5-HT2A receptor, 100%; on 5-HT6 receptor, 95%; at M3 muscarinic receptors, 17%; in experiment [2] it was 93%. For the same compound, at 5-HT6 receptor, the inhibitory constant (Ki) is 39 nM. In experiment [1], the “α1 [%]” value is given as 29%. Besides, the “σ [%]” value with σ receptors turned out to be 48%.
